According to patent publication EP0550007A2, “Eseroline derivatives having anticholinesterase activity, a process for their preparation and pharmaceutical compositions containing them” (priority 1991, dated 1993):

What was measured:
[1] = pharmacokinetics in mouse after oral and intramuscular administration; type: in vivo
Description: The kinetics of the four products to be considered, is studied in mouse after oral and intramuscular administration, of respectively 7 and 3.5 mg/kg respectively of ESE001, ESE002, ESE003, ESE004.

mouse [2] = assay: analgesic activity, 2-phenylbenzoquinone test; type: in vivo
Text: Expte. Biol. Med. 95, 729, (1957).]
The procedure followed represents a modification of the test developed by Hoffner [Dtsch. Med. Wschr. 55, 731 (1929)].

[3] = antagonist effect on the stimulating effect of scopolamine (motor activity), ESE series; type: in vivo; conditions: oral administration of 2.5 mg; scopolamine 1 mg/kg
Description: This is countered by the oral administration of 2.5 mg of ESE001, ESE002, ESE003, ESE004.

acetylcholinesterase = target: T1, acetylcholinesterase (Mus musculus, UniProt P21836); assay: inhibition of acetylcholinesterase activity on the mouse brain after single doses; type: in vivo; conditions: for suppression of the enzymatic activity: even at higher doses; for duration of the inhibitory activity compared with physostigmine: mouse brain acetylcholinesterase; for inhibition of the acetylcholinesterase activity, on the mouse brain: single doses in the range 0.4 - 7 mg/kg
T1 construct: from tissue; host or cells: mouse brain
T1 sequence (P21836 32-614): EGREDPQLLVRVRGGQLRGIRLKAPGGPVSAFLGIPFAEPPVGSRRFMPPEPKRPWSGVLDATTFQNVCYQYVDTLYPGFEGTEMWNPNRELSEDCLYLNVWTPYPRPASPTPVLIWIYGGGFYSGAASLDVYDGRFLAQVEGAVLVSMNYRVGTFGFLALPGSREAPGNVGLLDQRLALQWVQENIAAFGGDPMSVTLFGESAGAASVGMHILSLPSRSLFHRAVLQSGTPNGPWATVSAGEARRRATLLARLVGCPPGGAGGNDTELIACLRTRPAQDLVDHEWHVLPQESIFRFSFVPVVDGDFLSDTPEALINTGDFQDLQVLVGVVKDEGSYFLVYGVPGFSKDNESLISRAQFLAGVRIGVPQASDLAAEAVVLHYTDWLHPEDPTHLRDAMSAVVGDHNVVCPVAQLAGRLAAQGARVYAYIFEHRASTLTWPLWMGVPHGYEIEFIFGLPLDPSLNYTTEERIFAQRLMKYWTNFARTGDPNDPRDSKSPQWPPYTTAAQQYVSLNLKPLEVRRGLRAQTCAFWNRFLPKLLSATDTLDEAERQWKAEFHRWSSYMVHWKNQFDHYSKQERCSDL

[4] = toxicity, LD50 i.p. (Table 1); type: in vivo; conditions: 50 % of the animals died within 24 hours from the administration; for LD50 at 24 h: in vivo, ip
Description: LD50 is determined for the dose (mg/kg) at which 50 % of the animals died within 24 hours from the administration.

[5] = acute toxicity, oral LD50 in the mouse; conditions: mouse, in vivo, po
Description: (§1) The mouse was used (Swiss strain having the average weight of the male mice being 26 g and 22 g that of the female mice: 5+5 animals per dose, observation period: 7days) The oral LD50 (suspension in 2% carboxymethylcellulose) were reported hereinbelow: Tab.2

[6] = preliminary pharmacokinetics, plasma level by HPLC; type: in vivo, Wistar rats; conditions: rats, 6.2 mg/kg/os
Text: The presence of the substance in the plasma was evidenced by HPLC. With this method, the identification threshold was 0.15 mcg per ml of plasma.

mouse [7] = assay: spontaneous motility (Dews' method modified according to Carminati); type: in vivo, mouse (SWISS strain); conditions: for reduction of spontaneous motility: oral, starting from minimal doses of 3.5-5 mg/kg, on average; for minimal doses causing a marked reduction of spontaneous motility: orally administered
Text: The Dews' method was utilized, as modified according to Carminati (Arch. Int. Pharmacodyn. et Thér. 181, 68,1969).

[8] = system: acetylcholinesterase activity (AchE); assay: in vivo anticholinesterase activity (blood and brain, Ellman colorimetric method); design: species or system Wistar male rats; conditions: rats, oral, 1.5 to 4 mg/kg; sacrificed after 20, 60 and 120 minutes
Description: The derivatives, under question and physostigmine suspended in 2% carboxymethylcellulose, were orally administered to groups of Wistar male rats (average weight about 250 g).
On the base of the obtained results in preliminary trials, the doses utilized for the comparison were comprised beween 0.2 and 0.4 mg/kg for physostigmine and between 1.5 and 4 mg/kg for the eseroline derivatives under question.
The groups of treated rats were sacrificed after 20, 60, and 120 minutes and the blood and the brain of each animal were immediately cooled to 0°C and maintained at this temperature during the successive treatments.
The acetylcholinesterase activity (AchE) was determined by using the Ellman et al's quick colorimetric method (Biochem. Pharmacol., 7, 88, 1961) and it was expressed as enzymatic inhibition percentage.

mouse [9] = assay: acute toxicity, oral LD50 in the mouse; conditions: oral, suspension in 2% carboxymethylcellulose, observation period 7 days
Description: as §1

CN1CC[C@@]2(C)c3cc(OC(=O)N4CCCC4)ccc3N(C)[C@@H]12 (relative stereo) [ESE001, (3-aS-cis)-1,2,3,3a,8,8a-hexahydro 1,3a,8-trimethylpyrrole [2,3-B]-indole 5-ol-1-pyrrolidinyl-carbamate ester]
liver kinetics / excretion [1]: pass through into the urine unchanged | analgesic activity (mouse [2]): show also analgesic activity | countering of the stimulating effect of scopolamine [3]: countered | suppression of the enzymatic activity (acetylcholinesterase): do not suppress the enzymatic activity | duration of the inhibitory activity compared with physostigmine (acetylcholinesterase): last longer than that of physostigmine | inhibition of the acetylcholinesterase activity, on the mouse brain (acetylcholinesterase): dose-dependence, reversible inhibition | LD50 [4]: 5 mg/kg

CN1CC[C@@]2(C)c3cc(OC(=O)NN4CCNCC4)ccc3N(C)[C@@H]12 [ESE002, (3-aS-cis)-1,2,3,3a,8,8a-hexahydro 1,3a,8-trimethylpyrrole [2,3-B]-indole 5-ol-1-piperazinyl-carbamate ester]
liver kinetics / excretion [1]: pass through into the urine unchanged | analgesic activity (mouse [2]): show also analgesic activity | countering of the stimulating effect of scopolamine [3]: countered | suppression of the enzymatic activity (acetylcholinesterase): do not suppress the enzymatic activity | duration of the inhibitory activity compared with physostigmine (acetylcholinesterase): last longer than that of physostigmine | inhibition of the acetylcholinesterase activity, on the mouse brain (acetylcholinesterase): dose-dependence, reversible inhibition | LD50 ([4]; 1440 min): <80 mg/kg | LD50 at 24 h [4]: > 40 mg/kg

CN1CC[C@@]2(C)c3cc(OC(=O)NN4CCOCC4)ccc3N(C)[C@@H]12 [ESE003, (3-aS-cis)-1,2,3,3a,8,8a-hexahydro 1,3a,8-trimethylpyrrole [2,3-B]-indole 5-ol-1-morpholinyl-carbamate ester]
liver kinetics / excretion [1]: pass through into the urine unchanged | analgesic activity (mouse [2]): show also analgesic activity | countering of the stimulating effect of scopolamine [3]: countered | suppression of the enzymatic activity (acetylcholinesterase): do not suppress the enzymatic activity | duration of the inhibitory activity compared with physostigmine (acetylcholinesterase): last longer than that of physostigmine | inhibition of the acetylcholinesterase activity, on the mouse brain (acetylcholinesterase): dose-dependence, reversible inhibition | LD50 ([4]; 1440 min): <80 mg/kg | LD50 at 24 h [4]: > 40 mg/kg

CN1CC[C@@]2(C)c3cc(OC(=O)NN4CCSCC4)ccc3N(C)[C@@H]12 [ESE004, (3-aS-cis)-1,2,3,3a,8,8a-hexahydro 1,3a,8-trimethylpyrrole [2,3-B]-indole 5-ol-1-thio-morpholinyl-carbamate ester]
liver kinetics / excretion [1]: pass through into the urine unchanged | analgesic activity (mouse [2]): show also analgesic activity | countering of the stimulating effect of scopolamine [3]: countered | suppression of the enzymatic activity (acetylcholinesterase): do not suppress the enzymatic activity | duration of the inhibitory activity compared with physostigmine (acetylcholinesterase): last longer than that of physostigmine | inhibition of the acetylcholinesterase activity, on the mouse brain (acetylcholinesterase): dose-dependence, reversible inhibition | LD50 ([4]; 1440 min): <80 mg/kg | LD50 at 24 h [4]: > 40 mg/kg

CN1CC[C@@]2(C)c3cc(OC(=O)NN4CCN(CCO)CC4)ccc3N(C)[C@@H]12 [ESE005]
LD50 ([4]; 1440 min): >40 mg/kg | LD50 at 24 h [4]: < 80 mg/kg

CN1CC[C@@]2(C)c3cc(OC(=O)NN4CCCNCC4)ccc3N(C)[C@@H]12 [ESE006, (3-aS-cis)-1,2,3,3a,8,8a-hexahydro 1,3a,8-trimethylpyrrole [2,3-B]-indole 5-ol-homopiperazinylcarbamate ester]
LD50 ([4]; 1440 min): <80 mg/kg | LD50 at 24 h [4]: > 40 mg/kg

CC1CCCC(C)N1NC(=O)Oc1ccc2c(c1)[C@]1(C)CCN(C)[C@@H]1N2C (stereo partly drawn) [ESE007, (3-aS-cis)-1,2,3,3a,8,8a-hexahydro 1,3a,8-trimethylpyrrole [2,3-B]-indole 5-ol-1-(2,6-dimethyl) piperidine carbamate ester]
LD50 ([4]; 1440 min): < 80 mg/kg | LD50 at 24 h [4]: > 40 mg/kg

CCCC1CN(NC(=O)Oc2ccc3c(c2)[C@]2(C)CCN(C)[C@@H]2N3C)CCO1 (stereo partly drawn) [ESE009, (3-aS-cis)-1,2,3,3a,8,8a-hexahydro 1,3a,8-trimethylpyrrole [2,3-B]-indole 5-ol-4-(3-propyl)-morpholinylcarbamate ester]
LD50 ([4]; 1440 min): < 60 mg/kg | LD50 at 24 h [4]: > 30 mg/kg

CCCC1CCCN(NC(=O)Oc2ccc3c(c2)[C@]2(C)CCN(C)[C@@H]2N3C)C1C (stereo partly drawn) [ESE010, (3-aS-cis)-1,2,3,3a,8,8a-hexahydro 1,3a,8-trimethylpyrrole [2,3-B]-indole 5-ol-1-(3-propyl)-2-pipecolinylcarbamate ester]
LD50 ([4]; 1440 min): < 60 mg/kg | LD50 at 24 h [4]: > 30 mg/kg

CCCC1CCN(NC(=O)Oc2ccc3c(c2)[C@]2(C)CCN(C)[C@@H]2N3C)C1=O (stereo partly drawn) [ESE011, (3-aS-cis)-1,2,3,3a,8,8a-hexahydro 1,3a,8-trimethylpyrrole [2,3-B]-indole 5-ol-1-(3-propyl)-2 pyrrolidone-carbamate ester]
LD50 ([4]; 1440 min): < 60 mg/kg | LD50 at 24 h [4]: > 30 mg/kg

CN1CC[C@@]2(C)c3cc(OC(=O)NC4CN5CCC4CC5)ccc3N(C)[C@@H]12 (stereo partly drawn) [ESE012, (3-aS-cis)-1,2,3,3a,8,8a-hexahydro 1,3a,8-trimethylpyrrole [2,3-B]-indole 5-ol-3 quinuclidyl-carbamate ester]
LD50 ([4]; 1440 min): < 60 mg/kg | LD50 at 24 h [4]: > 30 mg/kg

CN1CC[C@@]2(C)c3cc(OC(=O)N[C@H]4CCCCNC4=O)ccc3N(C)[C@@H]12 [MGT1, eseroline R-caprolactam carbamate]
LD50 at 168 h [5]: 322 mg/kg | maximum peak in plasma [6]: 36.14 ± 7.12 µg/mL | time of the maximum peak [6]: 90 ' | concentration in plasma ([6]; after 24 hours): 5090 ± 1710 ng/mL | concentration in plasma ([6]; time not given): 17110 ± 3810 ng/mL | reduction of spontaneous motility (mouse [7]): ~-39% | minimal doses causing a marked reduction of spontaneous motility (mouse [7]): 3.5 to 5 mg/kg

CN1CCC2(C)c3cc(OC(=O)NC4CCCN(CCO)C4=O)ccc3N(C)C12 (centres unmarked) [MGT3, eseroline N-ethanol-2-piperidone-3 aminocarbamate]
inhibitory activity of the acetylcholinesterase [8]: evident dose dipendent and reversible inhibitory activity | LD50 in the mouse (mouse [9]): 383,7 ± 41,2 mg/kg | reduction of spontaneous motility (mouse [7]): ~-39% | minimal doses causing a marked reduction of spontaneous motility (mouse [7]): 3.5 to 5 mg/kg

CN1CC[C@@]2(C)c3cc(OC(=O)N[C@H]4C(O)O[C@H](CO)[C@@H](O)[C@@H]4O)ccc3N(C)[C@@H]12 (stereo partly drawn) [MGT4, eseroline N-D-glucosamine carbamate]
LD50 at 168 h [5]: 398 mg/kg | reduction of spontaneous motility (mouse [7]): ~-39% | minimal doses causing a marked reduction of spontaneous motility (mouse [7]): 3.5 to 5 mg/kg

CN1CC[C@@]2(C)c3cc(OC(=O)Nc4ccc5c(c4)OCO5)ccc3N(C)[C@@H]12 [MGT7, eseroline 1,3 benzodioxol-5 carbamate]
inhibitory activity of the acetylcholinesterase [8]: evident dose dipendent and reversible inhibitory activity | LD50 at 168 h [5]: 332 mg/kg | reduction of spontaneous motility (mouse [7]): ~-39% | minimal doses causing a marked reduction of spontaneous motility (mouse [7]): 3.5 to 5 mg/kg

CNC(=O)Oc1ccc2c(c1)[C@]1(C)CCN(C)[C@@H]1N2C [Physostigmine, reference compound]
LD50 in the mouse (mouse [9]): 4,39 ± 1,14 mg/kg | LD50 at 24 h [4]: 0.64 mg/kg
